Measured values reported in US9334290B2, “Substituted tetrahydrocarbazole and carbazole carboxamide compounds” (Bristol-Myers Squibb Company, priority 2013, dated 2016).
Where two headings read alike, the source gives them in different places.

What was measured:
Jak2 tyrosine kinase = Jak2 tyrosine kinase (Homo sapiens (Human), UniProt O60674); experiment: Jak2 tyrosine kinase assay; assay type: biochemical
[1] = test system: CD69 expression on B cells in human whole blood; experiment: Whole blood assay of BCR-stimulated CD69 expression on B cells; assay type: cell-based; details: BCR-stimulated, read-out: CD69 IC50 values

Chain of Jak2 tyrosine kinase (O60674 whole entry): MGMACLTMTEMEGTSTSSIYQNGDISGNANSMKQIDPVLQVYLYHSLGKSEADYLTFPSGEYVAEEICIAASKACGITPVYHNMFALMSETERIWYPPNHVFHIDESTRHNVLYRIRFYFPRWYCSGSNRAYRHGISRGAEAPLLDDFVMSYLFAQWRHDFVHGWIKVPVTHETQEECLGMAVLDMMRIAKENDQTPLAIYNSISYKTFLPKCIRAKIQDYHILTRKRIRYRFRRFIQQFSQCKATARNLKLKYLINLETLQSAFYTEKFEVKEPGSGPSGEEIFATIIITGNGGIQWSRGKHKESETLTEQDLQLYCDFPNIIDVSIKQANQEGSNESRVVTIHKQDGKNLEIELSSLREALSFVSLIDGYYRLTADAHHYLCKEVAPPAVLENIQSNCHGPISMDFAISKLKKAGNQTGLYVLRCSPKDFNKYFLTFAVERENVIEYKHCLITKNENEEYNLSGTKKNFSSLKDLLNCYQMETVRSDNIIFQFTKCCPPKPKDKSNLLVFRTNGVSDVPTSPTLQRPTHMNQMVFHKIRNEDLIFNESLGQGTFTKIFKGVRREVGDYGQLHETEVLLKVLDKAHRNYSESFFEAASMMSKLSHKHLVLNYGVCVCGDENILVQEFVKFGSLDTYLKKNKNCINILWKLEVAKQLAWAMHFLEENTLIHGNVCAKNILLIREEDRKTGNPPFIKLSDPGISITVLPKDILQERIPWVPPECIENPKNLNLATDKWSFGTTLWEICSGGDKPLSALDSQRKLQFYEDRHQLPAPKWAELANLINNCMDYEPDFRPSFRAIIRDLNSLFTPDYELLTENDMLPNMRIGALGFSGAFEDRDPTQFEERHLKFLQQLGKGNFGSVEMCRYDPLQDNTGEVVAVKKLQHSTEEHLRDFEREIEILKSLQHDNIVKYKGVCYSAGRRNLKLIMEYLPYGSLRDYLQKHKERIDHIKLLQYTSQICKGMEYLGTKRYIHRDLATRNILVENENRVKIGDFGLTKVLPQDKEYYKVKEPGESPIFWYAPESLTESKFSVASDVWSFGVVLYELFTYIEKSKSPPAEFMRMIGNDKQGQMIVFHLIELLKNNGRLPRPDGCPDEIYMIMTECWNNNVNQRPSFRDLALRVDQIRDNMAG

| Structure (SMILES) | IC50 (Jak2 tyrosine kinase) [nM] | IC50 [1] [nM] | IC50 ([1]; Homo sapiens, B-cell) [nM] |
| --- | --- | --- | --- |
| Cc1c(-c2c(Cl)cc(C(N)=O)c3[nH]c4cc(C(C)(C)O)ccc4c23)cccc1-n1c(=O)cc2c(Cl)cccn2c1=O [Example 32, 3-Chloro-4-(R)-(3-(R)-(5-chloro-1,3-dioxo-1H-pyrido[1,2-c]pyrimidin-2(3H)-yl)-2-methylphenyl)-7-(2-hydroxypropan-2-yl)-9H-carbazole-1-carboxamide] |  | 160 |  |
| Cn1c(=O)n(-c2cccc(-c3c(Cl)cc(C(N)=O)c4[nH]c5cc(C(C)(C)O)ccc5c34)c2Cl)c(=O)c2ccccc21 [Example 42, 3-Chloro-4-(2-chloro-3-(1-methyl-2,4-dioxo-1,2-dihydroquinazolin-3(4H)-yl)phenyl)-7-(2-hydroxypropan-2-yl)-9H-carbazole-1-carboxamide] |  | 210 |  |
| Cn1c(=O)n(-c2cccc(-c3c(Cl)cc(C(N)=O)c4[nH]c5cc(C(C)(C)O)ccc5c34)c2Cl)c(=O)c2ccccc21 [Example 43, 3-Chloro-4-(R)-(2-chloro-3-(1-methyl-2,4-dioxo-1,2-dihydroquinazolin-3(4H)-yl)phenyl)-7-(2-hydroxypropan-2-yl)-9H-carbazole-1-carboxamide] |  | 71 |  |
| Cn1c(=O)n(-c2cccc(-c3c(Cl)cc(C(N)=O)c4[nH]c5cc(C(C)(C)O)ccc5c34)c2Cl)c(=O)c2cccc(F)c21 [Example 44, 3-Chloro-4-(2-chloro-3-(8-fluoro-1-methyl-2,4-dioxo-1,2-dihydroquinazolin-3(4H)-yl)phenyl)-7-(2-hydroxypropan-2-yl)-9H-carbazole-1-carboxamide] |  | 160 |  |
| Cc1c(-c2c(F)cc(C(N)=O)c3[nH]c4cc(C(C)(C)O)ccc4c23)cccc1-n1c(=O)[nH]c2c(F)cc(F)cc2c1=O [Example 50] |  | 120 |  |
| Cc1c(-c2c(F)cc(C(N)=O)c3[nH]c4cc(C(C)(C)O)ccc4c23)cccc1-n1c(=O)[nH]c2c(Cl)cccc2c1=O [Example 53] |  |  | 110 |
| Cn1c(=O)n(-c2cccc(-c3c(F)cc(C(N)=O)c4[nH]c5cc(C(C)(C)O)ccc5c34)c2Cl)c(=O)c2cccc(F)c21 [Example 61] |  | 93 |  |

The next lines start with the values.

| IC50 (Jak2 tyrosine kinase) [nM] | IC50 [1] [nM] | IC50 ([1]; Homo sapiens, B-cell) [nM] | Structure (SMILES) |
| --- | --- | --- | --- |
| 910 | 65 |  | Cc1c(-c2c(Cl)cc(C(N)=O)c3[nH]c4cc(C(C)(C)O)ccc4c23)cccc1-n1c(=O)c2cccc(F)c2n(C)c1=O (atropisomer, axis not shown) [Example 11, 3-Chloro-4-(R)-(3-(S)-(8-fluoro-1-methyl(d3)-2,4-dioxo-1,2-dihydroquinazolin-3(4H)-yl)-2-methylphenyl)-7-(2-hydroxypropan-2-yl)-9H-carbazole-1-carboxamide] |
|  | 21 |  | Cc1c(-c2c(Cl)cc(C(N)=O)c3[nH]c4cc(C(C)(C)O)ccc4c23)cccc1-n1c(=O)ccn(-c2ccc(F)cc2)c1=O [Example 24, 3-Chloro-4-(R)-(3-(3-(4-fluorophenyl)-2,6-dioxo-2,3-dihydropyrimidin-1(6H)-yl)-2-methylphenyl)-7-(2-hydroxypropan-2-yl)-9H-carbazole-1-carboxamide] |
|  | 24 |  | Cc1c(-c2c(Cl)cc(C(N)=O)c3[nH]c4cc(C(C)(C)O)ccc4c23)cccc1-n1c(=O)cc2c(Cl)cccn2c1=O [Example 33, 3-Chloro-4-(R)-(3-(S)-(5-chloro-1,3-dioxo-1H-pyrido[1,2-c]pyrimidin-2(3H)-yl)-2-methylphenyl)-7-(2-hydroxypropan-2-yl)-9H-carbazole-1-carboxamide] |
|  | 68 |  | Cn1c(=O)n(-c2cccc(-c3c(Cl)cc(C(N)=O)c4[nH]c5cc(C(C)(C)O)ccc5c34)c2Cl)c(=O)c2cccc(F)c21 [Example 45, 3-Chloro-4-(R)-(2-chloro-3-(8-fluoro-1-methyl-2,4-dioxo-1,2-dihydroquinazolin-3(4H)-yl)phenyl)-7-(2-hydroxypropan-2-yl)-9H-carbazole-1-carboxamide] |
